Test results reported in patent publication US20040219104A1, “Methods for treatment of tumors” (priority 2003, published 2004).

Tested on: JJ5 Breast Cancer cells
Assay: Kinetics of binding, internalization and retention of radioactivity in JJ5 breast cancer cells
Assay type: cell-based, human
Conditions: 37° C.
Procedure: For the normal breast cell line HBL-100, 8000 EGFR/cell has been reported. The expression of EGFR in breast cancer cell lines has a reported range of 800 EGFR/cell for MCF-7 cells to […] for MDA-MB-468 cells. […] Utilizing the Auger electron emitter ^111In was used in the initial experiments to illustrate the utility of the invention using EGF-^111In-labeled transferrin conjugates. The EGF-^111In-labeled transferrin (0.25-80 ng) was incubated with 1.5×10^6 cells/dish JJ5 Breast Cancer (prepared from BCBM JJ5) cells in 1 mL of 0.1% human serum albumin in 35 mm multiwell culture dishes at 37° C. for 30 minutes. The cells were transferred to a centrifuge tube and centrifuged. The cell pellet was separated from the supernatant and counted in a g-scintillation counter to determine bound (B) and free (F) radioactivity. Non-specific binding was determined by conducting the assay in 100 nM hEGF. The kinetics of binding was determined by incubating 1 ng of EGF-^111In-labeled transferrin conjugate with 3×10^6 JJ5 Breast Cancer cells at 37° C. and determining the proportion of radioactivity bound to the cells at various times up to 24 hours. Internalized fraction was measured by determining the proportion of radioactivity which could not be displaced from the cell surface by 100 nM hEGF. […]

## EGF-^111In-labeled transferrin conjugate: conjugate containing human epidermal growth factor (EGF) linked (biotin/streptavidin linker) to 111In-radiolabeled human transferrin
  binding by the breast cancer cells (kinetics): rapidly bound
